Results taken from patent US20220152048A1, “Botanical Extracts and Compounds from Castanea Plants and Methods of Use” (Emory University, priority 2019, published 2022).
≈ marks a conversion by molar mass, not a printed value.

Experiments:
S. aureus = test: Growth (optical density) of S. aureus; format: cell-based, Staphylococcus aureus; details: at the IC50 concentration of 8 μg/mL
Procedure: (§1) Fractions were tested for quorum quenching activity against all four agr types agr P3-YFP reporter strains AH1677 (type I), AH430 (type II), AH1747 (type III), and AH1872 (type IV). Sample stock solutions were dissolved in DMSO at a concentration of 2 mg/mL. Overnight cultures of reporter strains that were grown in TSB supplemented with chloramphenicol (Cam) were inoculated into fresh TSB containing Cam to achieve a working culture OD of 0.0006. Working culture was added to 96-well microtiter plates (Costar 3603) as was sample in order to achieve a final well volume of 200 μL. Mock vehicle (DMSO) treatments were included for each reporter strain. Microtiter plates were incubated at 37° C. with shaking (1250 rpm) in a Stuart SI505 incubator (Bibby Scientific, Burlington, N.J.) with a humidified chamber. Fluorescence (top reading, 493 nm excitation, 535 nm emission, gain 60) and optical density (OD) readings at 600 nm were recorded at 18 h using a Tecan Systems (San Jose, Calif.) Infinite M200 plate reader.

[1] = tested on: Staphylococcus aureus reporter strain of agr I expression (AH1677); test: agr I reporter strain AH1677 dose range (FIG. 3); format: cell-based; details: strain AH1677, fluorescence (FLD) of the gene reporter
Procedure: Strain AH1677 was treated with a range of doses of SF6, SF7, and a combination of the two. OD refers to growth, while FLD refers to fluorescence of the gene reporter. […] The combined effects of SF6 and SF7 are additive; a dose 4 μg/mL SF6+4 μg/mL SF7 has the same effect as an 8 μg/mL dose of either.
as §1

[2] = tested on: Staphylococcus aureus reporter strains of agr (types I-IV: AH1677, AH430, AH1747, AH1872); test: Quorum quenching assay with agr P3-YFP reporter strains (fluorescence); format: cell-based; details: read-out: IC50 for inhibition of fluorescence across agr reporter strains
Description: Hydroperoxy-cycloartanes were isolated from the methanolic extract of the leaves of Castanea sativa, a substantial, long-lived deciduous tree that produces an edible seed, the chestnut. 224C-F2c-PF42-SF6 is a mixture of a cycloartane with a hydroperoxy group at the terminus of its alkyl chain and a carboxylic acid and methyl group replacing the gem-dimethyl group (1a) and a cycloartane with a terminal alkene and carboxylic acid in the S configuration at C24 (1b). 224C-F2c-PF42-SF7 is a cycloartane with a terminal alkene and carboxylic acid in the R configuration at C24 (2). […] The compounds 2 and SF6 were evaluated for the ability to inhibit fluorescence of Staphylococcus aureus reporter strains of agr, the main gene regulating quorum sensing. Additionally, 2 and SF6 were evaluated for cytotoxicity against human immortalized keratinocytes (HaCaT).
After eluting from the column, 224C-F2 was split into parts a-d. […] A screen against S. aureus reporter strains of AIP-induced agr:P3 activation representing all four agr subtypes functioned as a preliminary readout of quorum sensing inhibition and the bioassay which guided fractionation. […]

SMILES: C=C(C)[C@H](CC[C@H](C)[C@@H]1CC[C@]2(C)[C@H]3[C@H](O)C[C@@H]4[C@@](C)(C(=O)O)[C@H](O)CC[C@]45C[C@]35CC[C@@]12C)OO [Compound 2]
- growth inhibitory effects on S. aureus (S. aureus): no growth inhibitory effects
- activity in agr I reporter strain as compared to parent fraction and positive control 224C-F2c [1]: slightly reduced
- IC50 [2]: 8 µg/mL (≈ 15.9 µM)
